Data from patent US5756505A, “N-acylpiperazine derivative, antibacterial drug and anti-ulcer drug” (Shiseido Co., Ltd., priority 1995, dated 1998).

Assays:
[1] = MTT: Cell Damaging and Protecting Effect Test; type: cell-based, rabbit (male Japanese White); conditions: rabbit, gastric mucosal cells, final concentration 10^-4 M, 4 hours; smaller value is better; read-out: MTT: cell damaging rate
Source text: MTT: Cell Damaging and Protecting Effect Test
It is confirmed that there is no toxicity in cell level. Those having a toxicity in cell level are inappropriate as an anti-ulcer drug.
A male Japanese White rabbit (2.5 to 3 kg) was anesthetized to death by Nembutal™ and, immediately thereafter, its stomach was removed. The greater curvature of the stomach was incised so as to remove the stomach contents therefrom. After the mucosal surface was washed with HBSS (Hanks' Balanced Salt Solution), the stomach in ice-cooled HBSS was transferred to a laboratory. Then, after the pyloric antrum was removed, the gastric corpus mucosa was separated by a spatula and then minced into 2 to 3 mm^3 pieces in BME (Basal Medium Eagle). Thereafter, these pieces were shaken at 120 to 130 cycles/minute for 15 minutes at 37° C. in BME 60ml containig 280 U/ml of dispase and 30 to 50 U/ml of collagenase. Here, the concentration of collagenase was appropriately changed for each lot in view of the state of cells. The pieces were washed twice with EBSS (Earle's Balanced Salt Solution) containing 1 mM of EDTA and then shaken in MEM (Minimum Essential Medium) containing 1 mM of EDTA at 37° C. for 5 minutes. Subsequently, they were shaken in the dispase and collagenase having the same concentrations as those mentioned above for 15 minutes so as to remove the supernatant and then further shaken at 37° C. for 50 to 60 minutes at 120 to 130 cycles/minute. Then, after being washed twice with HBSS, Ham F12 containing 2% of Ultrocer G™ was used to attain the concentration of 1×10^6 cells/ml. Thus formed suspension was dispensed in each well of a 96-well plate by 200 μl. The plate was incubated in the atmosphere composed of 5% CO2 and 95% air at 37° C. for three days so as to attain a confluent state and then subjected to MTT assay.
The sample compound was dissolved in DMSO so as to attain a concentration of 10^-2 M and then diluted with HBSS containing 2% of Ultrocer G™ so as to attain a final concentration of 10^-4 M. To each group, which 8 wells were used for, 10 μl of MTT reagent were added immediately after 100 μl of the medium in each well were exchanged for same volume of the resulting solution of the sample compound. After being incubated in an atmosphere composed of 5% CO2 and 95% air at 37° C. for 4 hours, thus formed solution was centrifuged and then its supernatant was discarded. Subsequently, 100 μl of 100% ethanol were added to the residue so as to dissolve MTT formazan. Then, the absorbance (OD: 570 to 630) was measured by a microplate reader. This method utilizes a phenomenon in which MTT is changed to MTT formazan only by mitochondria of living cells so as to change color.
The cell damaging or cell protecting effect of the sample compound at the final concentration of 10^-4 M was expressed as cell damaging rate (%) as follows:
cell damaging rate (%)=[1-(absorbance in sample group/absorbance in control group)]×100
Accordingly, the smaller value is better in the cell damaging rate.

stress ulcer formation = test: WIS: Restraint and Water Immersion Stress-Induced Ulcer Inhibition Test; type: in vivo, rat (male Crj:SD or Slc:SD); conditions: rat; for WIS: ulcer formation inhibitory rate: 100 mg/kg oral, 7 hours stress
Experimental: WIS: Restraint and Water Immersion Stress-Induced Ulcer Inhibition Test
The degree of inhibition of the stress ulcer formation is tested.
Male Crj:SDor Slc:SD rats (6 to 7-week-old) were fasted overnight, but allowed free access to water. Each group has 5 to 8 of these rats. The sample compound was dissolved or suspended in an aqueous solution of 0.3% sodium carboxymethylcellulose or 0.05% Tween 80 and then was orally administered (100 mg/10 ml/kg). To a control group, the vehicle was administered. 10 minuts later, the rats were placed in a stress cage and immersed to the level of xipfoid process in a water bath (21° C.) for 7 hours. At the end of the stress, the rats were sacrificed by inhalation of ether or carbon dioxide. Then, the stomach of each was removed, inflated by injecting 10 ml of 5% formalin neutral buffer solution, and immersed in 1% formalin neutral buffer solution for 30 minutes or more to be fixed. The stomach was incised along the greater curvature and then the length of each erosion in the glandular portion was determined under dissecting microscope. The sum of the length of erosions per stomach was defined as ulcer index (UI).
The effect obtained when 100 mg/kg of the sample compound had been administered was expressed as ulcer formation inhibitory rate (%) as follows:
ulcer formation inhibitory rate (%)=[1-(UI in sample group/UI in control group)]×100

[2] = test system: isolated gastric fundic gland; test: CAP: Acid Secretion Inhibition Test In Vitro ([14C]-aminopyrine uptake); type: cell-based, rabbit (male Japanese White); conditions: Oryctolagus cuniculus, final concentration 10^-5 M, histamine 10^-5 M, rabbit gastric fundic gland; read-out: CAP: acid secretion inhibitory rate
Experimental: CAP: Acid Secretion Inhibition Test In Vitro
The acid secretion inhibitory activity in a cell level is studied. It can also be used for studying the mechanism of the effect. […]
ii-a) Preparation of isolated gastric fundus gland suspension
First, an isolated gastric fundic gland sample was prepared. Namely, a male Japanese White rabbit (2.5 to 3 kg) was anesthetized to death with Nembutal™ and then the abdomen was incised. Immediately thereafter, the stomach was removed and, after its pyloric and cardiac antrum were severed, incised along its greater curvature into two sheets. The gastric contents adhering to the mucosal surface was washed out with ice-cooled PBS (-) and then carefully washed therein. The gastric wall was spread on a cork board with its mucosal surface facing up and the feed and mucus thereon were completely removed with sterile gauze. The mucosa was separated therefrom by a spatula and then collected in ice-cooled PBS (-). After being washed twice with PBS (-), the mucosa was minced into 2-3mm^3 pieces by scissors. These pieces were further washed twice with a nutrient solution. The nutrient solution comprises 132.4 mM of NaCl, 5.4 mM of KCl, 5 mM of Na2 HPO4 ·12H2 O, 1 mM of NaH2 PO4 ·2H2 O, 1.2 mM of MgSO4, 1 mM of CaCl2, 25 mM of HEPES, 2mg/ml of glucose, and 1 mg/ml of BSA. Into 70 ml of the nutrient solution containing 1 mg/ml of collagenase, minced mucosal pieces were dispersed and intensely stirred in a conical flask with a stirrer at 37° C. for 40 to 60 minutes. During this period, 100% O2 was sprayed on the nutrient solution surface and the pH was appropriately measured such that it was immediately adjusted to pH 7.4, when the value was therebelow, with a base. The nutrient solution was added to the reaction solution so as to attain the total amount of about 200 ml. After being filtered through a mesh, the suspension was divisionally introduced into 50 ml centrifuge tubes and left for 15 minutes such that gastric fundic gland was deposited. The supernatant was repeatedly removed by an aspirator, dispersed in the nutrient solution, and then left such that the gastric fundic gland was washed three times. At this time, without using a pipette, the suspension was alternately introduced into two centrifuge tubes so as to effect dispersion. The number of cells was counted under microscope and adjusted to 1.6×10^6 cells/ml. […]
ii-b) [^14 C]-aminopyrine uptake test
Then, [^14 C]-aminopyrine uptake test was performed. After an Eppendorf tube was weighed, 10 μl (final concentration: 10^-5 M) of histamine dissolved in the above-mentioned nutrient solution, 10 μl (final concentration: 10^-5 M) of the test compound dissolved in DMSO, and 10 μl (final concentration: 0.05 μCi/ml) of [^14 C]-aminopyrine diluted with the nutrient solution were introduced therein and then 970 μl of the isolated gastric fundic gland suspension prepared above were added thereto. Subsequently, this mixture was shaken at 37° C. for 40 minutes at 125 cycles/minute. After being centrifuged for 30 minutes 200 μl of its supernatant was collected into a mini-vial, while the rest was removed by an aspirator. The gland pellet was completely dried as the tube with its lid being opened was kept for one night in a drying oven at 80° C. and then the lid was closed and the weight was determined at room temperature. Then 100 μl of 1N KOH were added thereto and the tube with its lid being closed was treated at 60° C. for 1 to 2 hours so as to dissolve the pellet. Then, the contents thereof were transferred to a mini-vial. Into the mini-vial containing the supernatant or gland pellet, 4 ml of Atomlite™ were added and then the radioactivity was measured by a liquid scintillation counter. Here, after the radioactivity of the gland pellet was corrected by using a sample in which 20 mM of NaSCN were added so as to cancel the hydrogen ion concentration gradient, the integration ratio of aminopyrine specifically trapped by the gland pellet was calculated. […]

[3] = cited from earlier work

SMILES: CC(C)Cc1cc(C(=O)N2CCN(CC(C)C)CC2)ccc1OCc1ccc(C#N)cc1.Cl [Example 11, 1-[4-(4-cyanobenzyloxy)-3-isobutylbenzoyl]-4-isobutylpiperazine hydrochloride]
- cytotoxicity at 4 h, 100 µM [1]: -77%
- WIS: ulcer formation inhibitory rate (stress ulcer formation): 94%
- inhibition at 10 µM [2]: 100%

SMILES: CC(C)Cc1cc(C(=O)N2CCN(CCOC(=O)c3ccc4c(c3)OCO4)CC2)ccc1OCc1ccc(F)cc1 [Example 10, 1-[4-(4-fluorobenzyloxy)-3-isobutylbenzoyl]-4-[2-(piperonyloyloxy)ethyl]piperazine]
- cytotoxicity at 4 h, 100 µM [1]: 34%
- WIS: ulcer formation inhibitory rate (stress ulcer formation): 54%
- anti-ulcer effect (in words) (stress ulcer formation; in vivo): sufficient effects
- inhibition at 10 µM [2]: 100%

SMILES: Cc1c(N(C)C)c(=O)n(-c2ccccc2)n1C [aminopyrine]
- pKa [3]: 5.0

SMILES: CC(C)CN1CCN(C(=O)c2ccc(OCc3ccc(F)cc3)c(N)c2)CC1.Cl.Cl [Example 1, 1-[3-amino-4-(4-fluorobenzyloxy)benzoyl]-4-isobutylpiperazine dihydrochloride]
- WIS: ulcer formation inhibitory rate (stress ulcer formation): 88%

SMILES: COc1cc(C(=O)N2CCN(CC(C)C)CC2)ccc1OCc1ccc(F)cc1.Cl [Example 7, 1-[4-(4-fluorobenzyloxy)-3-methoxybenzoyl]-4-isobutylpiperazine hydrochloride]
- cytotoxicity at 4 h, 100 µM [1]: -72%
- WIS: ulcer formation inhibitory rate (stress ulcer formation): 48%
- inhibition at 10 µM [2]: 100%
